The test system of this assay is HeLa viability, ATP luminescence (CellTiterGlo), 48 h. Put plainly: HeLa cell cytotoxicity, dose response, cytotoxicity control for LANA inhibitor project, luminescence (AID 463211).

Active and inactive are the calls of the source.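 Rule for the calls: active = loss of HeLa cell viability with AC50 at most tenfold above the top tested dose; inconclusive = flat fit with signal drop between 30% and 70%, or poor fit; inactive = AC50 more than tenfold above top tested dose.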

The AC50 is the midpoint of the concentration-response curve, whichever way the signal moves. `CCCCCCCCCCCCCCCC[n+]1ccc(/C=N/O)cc1`: the AC50 is 11.9 µM.
In the case of `Cc1nn(C)c(C)c1N1C(=O)c2cccc3c(N)ccc(c23)C1=O` it was > 35 µM (inactive).
Take `COc1ccc2ccccc2c1C(O)c1nccn1C` (centres undefined): the AC50 is > 35 µM (inactive).
In the case of `Cc1cccc(N2C(=O)c3cccc4c(N(C)CCO)ccc(c34)C2=O)c1` it was > 35 µM (inactive); in that of `COc1cccc2c1C(=O)c1c(O)c3c(c(O)c1C2=O)CC(O)(C(=O)CO)CC3OC1CC(N)C(O)C(C)O1` (centres undefined), 4.4 µM; in that of `CN(C)/C=C1\C=C2C(=O)c3ccccc3N2C1=O`, > 35 µM (inactive).
In the case of `Cc1cc2nc3c(=O)n(Cc4ccccc4)c(=O)[nH]c3nc2cc1N` it was > 35 µM (inactive); in that of `CC(=O)Oc1ccc2c(c1)Oc1cc(OC(C)=O)ccc1C21OC(=O)c2ccccc21`, > 35 µM (inactive).
Take `O=C1c2ccccc2-c2onc3ccc(NCCCn4ccnc4)c1c23`: the AC50 was 32.4 µM.
Turning to `O=C1CCN2C=Nc3cccc4ccc1c2c34`, the AC50 is 8.08 µM.
In the case of `CCCCCCn1c(=O)[nH]c2nc3cc(N)ccc3nc2c1=O`, the AC50 is > 35 µM (inactive).
Take `O=S(=O)(Nc1cc(Cl)ccc1N1CCOCC1)c1ccccc1Cl`: the AC50 was > 35 µM (inactive).
In the case of `O=C(CCCN1C(=O)c2cccc3cccc(c23)C1=O)N1CCN(c2ccccc2)CC1` it was > 35 µM (inactive).
Turning to `Cc1cc(C)cc(NS(=O)(=O)c2ccc3c(c2)C(C)(C)C(=O)N3C)c1`, the AC50 is > 35 µM (inactive).
With `CC1=NCCc2c1[nH]c1cc(O)ccc21` the figure was > 35 µM (inactive); with `CC(C)(C)C1(C)OC(=O)C(=Cc2ccc(OCC(=O)Nc3ccccc3)cc2)C(=O)O1` (centres undefined), > 35 µM (inactive); with `Cc1cc(C)c2nc(C(F)(F)F)nc(NCCCN3CCCC3=O)c2c1`, > 35 µM (inactive).
In the case of `CC(=O)Nc1cccc(N)c1` it was > 35 µM (inactive); in that of `Cc1n[nH]c(C)c1N1C(=O)c2cccc3c(N4CCCCCC4)ccc(c23)C1=O`, > 35 µM (inactive).
In the case of `COc1ccc2c3c(cccc13)C(=O)CC2` it was 22.3 µM.
For `Cc1nn(C)cc1N1C(=O)c2cccc3c(N)ccc(c23)C1=O`, the AC50 was > 35 µM (inactive).
In the case of `Cc1ccc(Cl)cc1N1CCN(C(=O)C2CCN(S(C)(=O)=O)CC2)CC1` it was > 35 µM (inactive).
In the case of `O=c1ccc2c(-c3ccccc3)c3ccc(O)cc3oc-2c1` it was > 35 µM (inactive); in that of `Cn1nc(-c2ccccc2)c2nc3ccccc3nc21`, > 35 µM (inactive); in that of `COc1ccc(C2C=C(c3ccc(Br)cc3)Nc3nc(NS(C)(=O)=O)nn32)cc1` (centres undefined), > 35 µM (inactive).
As for `O=C1c2ccccc2-c2onc3ccc(NCc4ccco4)c1c23`, the AC50 is 28.5 µM.
In the case of `CC(C)CSC1=NSC2=NC(=O)/C(=C\c3coc4ccccc4c3=O)C(=N)N12`, the AC50 was > 35 µM (inactive).
For the molecule `CC1Cc2ccccc2N1C(=O)CSc1ncccn1` (centres undefined), the AC50 was > 35 µM (inactive).
Consider `CC(=O)Nc1ccc(-c2cn3ccsc3n2)cc1`, for which the AC50 was > 35 µM (inactive).

Source of the values: PubChem BioAssay AID463211 (Broad Institute, 2010).
